How the values were obtained:
[1] = target: Substance-P receptor (Homo sapiens, UniProt P25103); format: cell membranes, CHO, Membrane; conditions: cho; further: in other assays of this panel Not Active means under 50% inhibition at 10 µM
[2] = target: Sigma non-opioid intracellular receptor 1 (Homo sapiens, UniProt Q99720); test: DRUGMATRIX: Sigma1 radioligand binding (ligand: [3H] Haloperidol); format: cell membranes, Jurkat, Membrane; conditions: jurkat; Not Active = under 50% inhibition at 10 µM
[3] = target: T1, Estrogen receptor (Homo sapiens, UniProt P03372); conditions: sf9; further: in other assays of this panel Not Active means under 50% inhibition at 10 µM
T1 sequence (P03372 whole entry): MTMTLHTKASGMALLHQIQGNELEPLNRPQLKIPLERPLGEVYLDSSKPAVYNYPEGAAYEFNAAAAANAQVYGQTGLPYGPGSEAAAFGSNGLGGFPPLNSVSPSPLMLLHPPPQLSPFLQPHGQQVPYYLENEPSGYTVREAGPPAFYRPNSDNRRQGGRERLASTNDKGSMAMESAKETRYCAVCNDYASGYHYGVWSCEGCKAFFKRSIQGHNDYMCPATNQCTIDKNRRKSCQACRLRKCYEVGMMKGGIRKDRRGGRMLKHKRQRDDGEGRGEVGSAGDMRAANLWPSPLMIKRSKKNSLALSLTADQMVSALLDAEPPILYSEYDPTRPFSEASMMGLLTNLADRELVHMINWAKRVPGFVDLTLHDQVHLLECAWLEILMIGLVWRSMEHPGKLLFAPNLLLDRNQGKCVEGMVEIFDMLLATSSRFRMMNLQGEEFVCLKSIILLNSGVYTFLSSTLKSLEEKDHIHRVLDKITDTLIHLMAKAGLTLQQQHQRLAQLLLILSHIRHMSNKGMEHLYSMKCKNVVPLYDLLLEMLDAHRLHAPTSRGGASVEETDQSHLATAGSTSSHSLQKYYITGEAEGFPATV

[4] = DRUGMATRIX: Glutamate, Kainate radioligand binding (ligand: [3H] Kainic acid); format: cell membranes, Rattus norvegicus, Wistar, Brain, Membrane; conditions: Not Active = under 50% inhibition at 10 µM
[5] = target: Matrix metalloproteinase-9 (Homo sapiens, UniProt P14780); format: cell-based;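 further: inhibition of isolated MMP-9 enzyme activity toward a synthetic peptide substrate, from the DrugMatrix protease screening panel; in other assays of this panel Not Active means under 50% inhibition at 10 µM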
[6] = target: T2, Polyunsaturated fatty acid lipoxygenase ALOX15 (Oryctolagus cuniculus, UniProt P12530); test: biochemical; format: tissue-based, Reticulocytes; conditions: reticulocytes;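 further: inhibition of 15-lipoxygenase enzyme activity measured with linoleic acid as the substrate; in other assays of this panel Not Active means under 50% inhibition at 10 µM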
T2 sequence (P12530 whole entry): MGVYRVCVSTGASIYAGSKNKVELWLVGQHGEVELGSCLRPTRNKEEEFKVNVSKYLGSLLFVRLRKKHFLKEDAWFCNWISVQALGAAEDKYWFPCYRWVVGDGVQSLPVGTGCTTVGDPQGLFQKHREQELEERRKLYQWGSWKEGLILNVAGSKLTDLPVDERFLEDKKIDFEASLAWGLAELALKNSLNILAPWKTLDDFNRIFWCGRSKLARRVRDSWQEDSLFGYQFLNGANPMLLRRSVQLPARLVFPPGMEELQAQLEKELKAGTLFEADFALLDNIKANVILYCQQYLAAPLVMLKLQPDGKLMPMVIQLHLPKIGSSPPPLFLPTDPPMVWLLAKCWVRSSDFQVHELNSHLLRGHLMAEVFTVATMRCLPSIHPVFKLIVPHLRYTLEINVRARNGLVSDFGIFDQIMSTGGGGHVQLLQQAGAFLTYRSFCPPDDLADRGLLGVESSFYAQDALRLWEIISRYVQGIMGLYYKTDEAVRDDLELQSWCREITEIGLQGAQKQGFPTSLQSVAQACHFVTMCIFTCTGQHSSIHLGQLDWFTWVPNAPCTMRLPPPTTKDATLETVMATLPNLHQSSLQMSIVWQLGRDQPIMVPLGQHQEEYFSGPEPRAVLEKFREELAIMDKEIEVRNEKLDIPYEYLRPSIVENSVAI

[7] = DRUGMATRIX: Phorbol Ester radioligand binding (ligand: [3H] PDBu); format: cell membranes, Mus musculus, ICR, Brain, Membrane; conditions: Not Active = under 50% inhibition at 10 µM
[8] = DRUGMATRIX: GABAA, Flunitrazepam, Central radioligand binding (ligand: [3H] Flunitrazepam); format: cell membranes, Rattus norvegicus, Wistar, Brain, Membrane; conditions: Not Active = under 50% inhibition at 10 µM
[9] = target: T3, Leukotriene C4 synthase (Cavia porcellus, UniProt A6XA80); test: biochemical; format: tissue-based, Lung
T3 sequence (A6XA80 whole entry): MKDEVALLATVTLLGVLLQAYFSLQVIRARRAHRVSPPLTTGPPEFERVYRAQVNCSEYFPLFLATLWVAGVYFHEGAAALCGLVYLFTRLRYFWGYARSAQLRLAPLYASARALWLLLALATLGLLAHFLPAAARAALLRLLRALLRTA

[10] = target: cGMP-specific 3',5'-cyclic phosphodiesterase (Homo sapiens, UniProt O76074); test: DRUGMATRIX: Phosphodiesterase PDE5 enzyme inhibition (substrate: [3H]cGMP + cGMP); format: tissue-based, Platelet; conditions: platelet; Not Active = under 50% inhibition at 10 µM
[11] = target: T4, Cytochrome P450 2A6 (Homo sapiens, UniProt P11509); conditions: bti-tn-5b1-4; further: in other assays of this panel Not Active means under 50% inhibition at 10 µM
T4 sequence (P11509 whole entry): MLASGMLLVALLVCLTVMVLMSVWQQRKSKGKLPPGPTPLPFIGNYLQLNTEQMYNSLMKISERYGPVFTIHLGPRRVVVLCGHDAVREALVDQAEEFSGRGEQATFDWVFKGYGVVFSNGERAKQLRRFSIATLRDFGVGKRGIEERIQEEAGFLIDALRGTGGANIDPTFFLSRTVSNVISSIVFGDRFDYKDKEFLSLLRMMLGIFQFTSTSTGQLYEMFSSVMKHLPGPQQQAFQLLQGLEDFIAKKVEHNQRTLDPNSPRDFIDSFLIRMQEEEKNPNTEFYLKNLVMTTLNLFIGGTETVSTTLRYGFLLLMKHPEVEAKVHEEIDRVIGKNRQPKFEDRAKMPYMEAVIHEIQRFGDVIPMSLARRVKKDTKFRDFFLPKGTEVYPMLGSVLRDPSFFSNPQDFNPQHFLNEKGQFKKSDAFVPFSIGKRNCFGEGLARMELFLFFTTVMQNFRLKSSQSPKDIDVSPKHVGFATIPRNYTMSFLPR

[12] = target: Protein phosphatase 3 catalytic subunit alpha (Homo sapiens, UniProt Q08209); set-up: species or system Escherichia coli
[13] = DRUGMATRIX: Sigma2 radioligand binding (ligand: [3H] Ifenprodil); format: cell membranes, Rattus norvegicus, Wistar, Brain, Membrane; conditions: Not Active = under 50% inhibition at 10 µM
[14] = target: Platelet-activating factor receptor (Homo sapiens, UniProt P25105); test: biochemical; format: tissue-based; conditions: platelet; further: in other assays of this panel Not Active means under 50% inhibition at 10 µM
[15] = target: 5-hydroxytryptamine receptor 1B (Rattus norvegicus, UniProt P28564); format: cell membranes, Wistar, Cerebral cortex, Membrane; further: in other assays of this panel Not Active means under 50% inhibition at 10 µM
Chain of 5-hydroxytryptamine receptor 1B (P28564 whole entry): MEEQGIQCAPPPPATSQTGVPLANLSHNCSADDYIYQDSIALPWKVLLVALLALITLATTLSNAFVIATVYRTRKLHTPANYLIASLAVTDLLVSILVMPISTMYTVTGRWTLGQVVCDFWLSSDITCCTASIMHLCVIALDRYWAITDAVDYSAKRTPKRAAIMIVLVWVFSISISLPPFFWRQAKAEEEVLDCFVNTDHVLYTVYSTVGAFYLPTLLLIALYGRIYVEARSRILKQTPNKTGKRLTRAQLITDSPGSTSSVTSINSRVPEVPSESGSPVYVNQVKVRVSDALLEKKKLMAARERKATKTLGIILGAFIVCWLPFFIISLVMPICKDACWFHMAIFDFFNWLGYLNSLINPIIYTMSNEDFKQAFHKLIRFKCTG

Chain of Substance-P receptor (P25103 whole entry): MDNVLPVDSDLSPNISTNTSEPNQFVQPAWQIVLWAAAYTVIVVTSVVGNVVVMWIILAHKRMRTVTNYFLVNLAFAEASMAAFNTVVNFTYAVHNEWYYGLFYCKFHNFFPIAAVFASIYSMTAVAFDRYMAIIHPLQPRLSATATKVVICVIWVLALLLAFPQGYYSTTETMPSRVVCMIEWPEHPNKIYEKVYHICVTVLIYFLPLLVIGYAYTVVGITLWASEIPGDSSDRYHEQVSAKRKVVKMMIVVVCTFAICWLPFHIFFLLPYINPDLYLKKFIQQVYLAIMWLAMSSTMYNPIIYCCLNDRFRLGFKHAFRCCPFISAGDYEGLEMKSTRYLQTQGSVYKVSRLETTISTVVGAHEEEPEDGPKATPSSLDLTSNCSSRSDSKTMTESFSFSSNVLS
Chain of Matrix metalloproteinase-9 (P14780 whole entry): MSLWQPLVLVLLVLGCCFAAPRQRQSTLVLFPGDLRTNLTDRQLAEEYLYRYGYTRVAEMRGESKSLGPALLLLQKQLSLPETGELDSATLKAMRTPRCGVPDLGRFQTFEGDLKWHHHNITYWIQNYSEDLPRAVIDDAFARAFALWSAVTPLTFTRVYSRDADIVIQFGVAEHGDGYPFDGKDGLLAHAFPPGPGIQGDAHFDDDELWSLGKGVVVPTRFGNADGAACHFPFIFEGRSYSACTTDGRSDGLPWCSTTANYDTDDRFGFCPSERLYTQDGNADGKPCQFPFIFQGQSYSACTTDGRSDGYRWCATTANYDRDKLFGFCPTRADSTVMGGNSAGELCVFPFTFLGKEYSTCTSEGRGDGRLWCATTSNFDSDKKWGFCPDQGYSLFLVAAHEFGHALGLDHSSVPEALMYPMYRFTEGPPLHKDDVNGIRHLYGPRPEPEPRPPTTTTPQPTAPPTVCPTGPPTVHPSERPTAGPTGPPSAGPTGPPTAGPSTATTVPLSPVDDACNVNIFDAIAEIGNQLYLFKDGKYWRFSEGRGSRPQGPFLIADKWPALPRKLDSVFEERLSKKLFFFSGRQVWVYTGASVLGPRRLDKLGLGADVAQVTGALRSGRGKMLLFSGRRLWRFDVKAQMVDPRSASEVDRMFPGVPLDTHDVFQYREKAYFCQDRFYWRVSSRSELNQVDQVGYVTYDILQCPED
Chain of Sigma non-opioid intracellular receptor 1 (Q99720 whole entry): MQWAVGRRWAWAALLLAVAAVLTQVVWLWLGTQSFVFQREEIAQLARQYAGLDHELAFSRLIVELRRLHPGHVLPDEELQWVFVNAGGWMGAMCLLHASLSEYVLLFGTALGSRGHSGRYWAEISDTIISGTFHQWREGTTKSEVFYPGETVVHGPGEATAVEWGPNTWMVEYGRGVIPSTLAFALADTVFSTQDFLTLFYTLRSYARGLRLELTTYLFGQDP
Chain of Platelet-activating factor receptor (P25105 whole entry): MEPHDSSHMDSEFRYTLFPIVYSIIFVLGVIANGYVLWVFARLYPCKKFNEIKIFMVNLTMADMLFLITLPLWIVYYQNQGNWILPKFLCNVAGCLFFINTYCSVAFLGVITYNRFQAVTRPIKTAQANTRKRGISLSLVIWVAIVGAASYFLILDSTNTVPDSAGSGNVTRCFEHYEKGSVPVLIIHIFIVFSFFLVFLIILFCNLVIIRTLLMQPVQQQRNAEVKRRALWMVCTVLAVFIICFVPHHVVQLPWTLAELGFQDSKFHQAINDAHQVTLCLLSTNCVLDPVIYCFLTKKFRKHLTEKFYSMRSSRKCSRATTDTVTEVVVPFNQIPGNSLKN

CCCC[C@@H](CC)COC(=O)c1ccccc1C(=O)OC[C@@H](CC)CCCC [BIS(2-ETHYLHEXYL)PHTHALATE]
IC50 [1]: Not Active | IC50 [2]: Not Active | IC50 [3]: Not Active | IC50 [4]: Not Active | Ki [4]: Not Active | IC50 [5]: Not Active | IC50 [6]: Not Active | IC50 [7]: Not Active | Ki [7]: Not Active | IC50 [8]: Not Active | Ki [8]: Not Active | IC50 [9]: Not Active | IC50 [10]: Not Active | IC50 [11]: Not Active | Ki [11]: Not Active | IC50 [12]: Not Active | IC50 [13]: Not Active | Ki [13]: Not Active | IC50 [14]: Not Active | IC50 [15]: Not Active

CN(C)[C@@H]1C(O)=C(C(N)=O)C(=O)[C@@]2(O)C(O)=C3C(=O)c4c(O)cccc4[C@@](C)(O)[C@H]3[C@H](O)[C@@H]12 [OXYTETRACYCLINE]
IC50 [1]: Not Active | IC50 [2]: Not Active | IC50 [3]: Not Active | IC50 [4]: Not Active | Ki [4]: Not Active | IC50 [5]: Not Active | IC50 [6]: Not Active | IC50 [7]: Not Active | Ki [7]: Not Active | IC50 [8]: Not Active | Ki [8]: Not Active | IC50 [9]: Not Active | IC50 [10]: Not Active | IC50 [11]: Not Active | Ki [11]: Not Active | IC50 [12]: Not Active | IC50 [13]: Not Active | Ki [13]: Not Active | IC50 [14]: Not Active | IC50 [15]: Not Active

O=C1CN=C(c2ccccc2)c2cc([N+](=O)[O-])ccc2N1 [NITRAZEPAM]
IC50 [1]: Not Active | IC50 [2]: Not Active | IC50 [3]: Not Active | IC50 [4]: Not Active | Ki [4]: Not Active | IC50 [5]: Not Active | IC50 [6]: Not Active | IC50 [7]: Not Active | Ki [7]: Not Active | IC50 ([8]; read-out: IC50): 54.7 nM | Ki ([8]; read-out: Ki): 44.6 nM | IC50 [9]: Not Active | IC50 [10]: Not Active | IC50 [11]: Not Active | Ki [11]: Not Active | IC50 [12]: Not Active | IC50 [13]: Not Active | Ki [13]: Not Active | IC50 [14]: Not Active | IC50 [15]: Not Active

CC(=O)CCCCn1c(=O)c2c(ncn2C)n(C)c1=O [PENTOXIFYLLINE]
IC50 [1]: Not Active | IC50 [2]: Not Active | IC50 [3]: Not Active | IC50 [4]: Not Active | Ki [4]: Not Active | IC50 [5]: Not Active | IC50 [6]: Not Active | IC50 [7]: Not Active | Ki [7]: Not Active | IC50 [8]: Not Active | Ki [8]: Not Active | IC50 [9]: Not Active | IC50 [10]: Not Active | IC50 [11]: Not Active | Ki [11]: Not Active | IC50 [12]: Not Active | IC50 [13]: Not Active | Ki [13]: Not Active | IC50 [14]: Not Active | IC50 [15]: Not Active

— ChEMBL document CHEMBL1909046, “DrugMatrix in vitro pharmacology data”
